# According to patent publication US20050118310A1, “Formulations of compounds derived from natural sources and their use with irradiation for food preservation” (priority 2001, published 2005):
# Marks after values point to notes of the source that are not given here.
# Key:
# Salmonella typhi = test: Example 4 irradiation sensitivity (D10) of S. typhi in ground beef; format: cell-based; conditions: carvacrol 1.15%, thymol 1.60%
# Experimental: (§1) Irradiation treatments of ground beef samples for D10 and shelf life determination were performed using UC-15B irradiator (MDS-Nordion International Inc., Kanata, ON, Canada) equipped with a ^60 Co source at a dose rate of 14.42 kGy/h). Irradiation doses used for D10 determination were ranged from 0.25 to 0.55 kGy for E. coli, from 0.50 to 2.0 kGy for S. typhi, and from 0.5 to 2.5 kGy for the mixture of indigenous microorganisms of ground beef. The shelf life study was performed on samples irradiated at 0.30, 0.85, and 1.75 kGy for E. coli, S. typhi, and the mixture of indigenous microorganisms of ground beef, respectively. For each active compound concentration tested, a group of non-irradiated samples sened as a control. For D10 determination, samples were analysed immediately after irradiation. For shelf life studies, samples were stored at 4° C. and analysed periodically.
# (§2) Microbial analysis was performed by homogenising the samples for 2 mn in sterile peptone water (0.1%) using a Lab-blender 400 stomacher (Laboratory Equipment, London, UK). […]
# (§3) The kinetics of bacteria destruction by irradiation with or without the food additives was evaluated by linear regression. Bacterial counts (log CFU/ml) were plotted against irradiation doses or active compounds concentration and D10 values were calculated using the PROC REG procedure of SAS (SAS Institute, Cary, N.C., USA). […]
# [1] = system: Mixture of indigenous bacteria; test: Example 4 irradiation sensitivity (D10) of indigenous bacteria of ground beef; format: cell-based; conditions: thymol […], trans-cinnamaldehyde […]
# Experimental: as §1, §2, §3
# S. typhi [2] = test: Shelf life study, S. typhi in ground beef irradiated at 0.85 kGy; format: cell-based, Salmonella typhi; conditions: stored at 4° C., thymol 1.6%
# Experimental: as §1
# (§4) Microbial analysis was performed by homogenising the samples for 2 mn in sterile peptone water (0.1%) using a Lab-blender 400 stomacher (Laboratory Equipment, London, UK). From this mixture, serial dilutions were prepared and appropriate ones were pour-plated in tryptic soy agar (TSA) (Difco, Laboratories, Detroit, Mich., USA) and incubated at 35° C., 24 hours for the numeration of E. coli and S. typhi. For the ground beef broth, the incubation was performed on Plate Count Agar (PCA; Difco) at 35° C. for 48 h for the numeration mesophilic bacteria, and at 7° C. for 10 days for the numeration of psychrotrophic bacteria. Enterobacteriaceae were numerated on Violet Red Bile Glucose Agar (VRBGA; Difco) 35° C. for 48 hours.
# (§5) A shelf life study was undertaken to evaluate the radiation sensitivity during refrigerated storage conditions. Ground beef samples contaminated with E. coli, S. typhi, or a mixture of indigenous micro-organisms were irradiated in presence or absence of selected active compounds. Due to the differences in sensitivity between the micro-organisms under study, the following irradiation doses were used: 0.30 kGy for E. coli, 0.85 kGy for S. typhi, and 1.75 kGy for the mixture of indigenous bacteria. The irradiation doses selected corresponded to the irradiation dose needed to produce 3 log CFU reduction in bacterial population in the control sample (without active compounds).
# [3] = system: mixture of indigenous microorganisms of ground beef (mesophilic and psychrotrophic bacteria); test: Shelf life study, indigenous micro-organisms of ground beef, statements for mesophilic and psychrotrophic bacteria together; format: cell-based; conditions: for reduction of bacterial counts by irradiation: control 3 log CFU; for storage time before a bacterial count of approximately 6 log is reached: meat treated with formulation in conjunction with irradiation, about 8 days with irradiation alone
# Experimental: as §1, §4, §5
# (§6) The shelf life study in ground beef contaminated with the mixture of indigenous microorganisms of ground beef was conducted by evaluating mesophilic, psychrotrophic and total Enterobacteriaceae in the samples. […] Irradiation reduced the bacterial counts by various degrees depending on the type of active compound used: 3 log CFU reduction for control (without active compounds), 3.5 and more than 5 log CFU reduction for samples containing thymol and trans-cinnamaldehyde, respectively. […] Bacterial counts in both sarnples remained below detectable levels even after 44 days. […] A similar effect was also observed during storage for irradiated samples containing thymol as compared to samples without thymol. Between day 5 and day 15, a difference of 2 to 3 log CFU was observed between the two groups of samples.
# mesophilic bacteria = test: Shelf life study, indigenous micro-organisms of ground beef, mesophilic count; format: cell-based; conditions: for shelf life period: 4° C., thymol […]
# Experimental: as §1, §4, §5, §6
# psychrotrophic bacteria = test: Shelf life study, indigenous micro-organisms of ground beef, psychrotrophic count; format: cell-based
# Experimental: as §1, §4
# A shelf life study was undertaken to evaluate the radiation sensitivity during refrigerated storage conditions. Ground beef samples contaminated with E. coli, S. typhi, or a mixture of indigenous micro-organisms were irradiated in presence or absence of selected active compounds. […]
# E. coli = test: Irradiation sensitivity (D10) of E. coli in ground beef; format: cell-based, Escherichia coli (ATCC 25922)
# S. typhi [4] = test: Irradiation sensitivity (D10) of S. typhi in ground beef; format: cell-based, Salmonella typhi (ATCC 19430)
# [5] = ground beef irradiated at 1.75 kGy, thymol […], trans-cinnamaldehyde […]
# [6] = ground beef, air, 4° C., carvacrol 1.0% alone or with ascorbic acid 0.5% and/or tetrasodium pyrophosphate 0.1%
# [7] = ground beef packed under MAP (60% O2-30% CO2-10% N2), 4° C., trans-cinnamaldehyde […]
# [8] = ground beef packed under air, 4° C., trans-cinnamaldehyde […]
# [9] = ground beef under MAP, trans-cinnamaldehyde […] vs control under the same atmosphere
# [10] = ground beef under air, trans-cinnamaldehyde […] vs control under the same atmosphere
# [11] = ground beef, MAP vs air, both with trans-cinnamaldehyde […]
# [12] = under MAP, trans-cinnamaldehyde […]
# [13] = under air, trans-cinnamaldehyde […]
# [14] = ground beef irradiated at 1.75 kGy, stored at 4° C., trans-cinnamaldehyde […]
# [15] = trans-cinnamaldehyde alone (no irradiation), stored at 4° C.
smiles,measurement,setting,value
"Cc1ccc(C(C)C)c(O)c1 [Thymol, thymol]",D10(kGy),Salmonella typhi,0.382 kGy
same,D10(kGy),[1],0.779 kGy
same,days of storage after which complete inhibition was produced,S. typhi [2]; carvacrol 1.15%,28 days
same,bacterial counts compared with the irradiated control after 15 days of storage,"S. typhi [2]; carvacrol 1.15%, lower than control",sinilar in both cases
same,difference between samples irradiated in presence and absence of compound at day 7,S. typhi [2],3 log CFU
same,complete inhibition during storage,"[3]; ground beef irradiated at 1.75 kGy, stored at 4° C., thymol […]",no complete inhibition
same,level of bacteria observed for irradiated samples during storage,"[3]; ground beef irradiated at 1.75 kGy, stored at 4° C., thymol […], 10^7 without thymol",10^4 CFU/g
same,reduction of bacterial counts by irradiation,[3]; [5],3.5 log CFU
same,storage time before a bacterial count of approximately 6 log is reached,[3],15 days
same,shelf life period,"mesophilic bacteria; irradiated samples (1.75 kGy), control 8 days",23 days
same,shelf life period,"mesophilic bacteria; non-irradiated samples, control 2 days",8 days
same,shelf life period,"psychrotrophic bacteria; non-irradiated samples, 4° C., thymol […], control 2 days",9 days
"Cc1ccc(C(C)C)cc1O [Carvacrol, carvacrol]",D10(kGy),E. coli; [6],0.057 ± 0.0015^a kGy
same,irradiation dose necessary to completely eliminate E. coli,E. coli; [6],0.3 kGy
same,factor by which the irradiation dose necessary to completely eliminate E. coli is lower than in the absence of active compounds,"E. coli; ground beef, air, 4° C., carvacrol 1.0% alone or with tetrasodium pyrophosphate 0.1%",2.3
same,Increase in Sensitivity,"E. coli; vs control, negative = protective effect, ground beef, air, 4° C., carvacrol 1.0% alone or with ascorbic acid 0.5% and/or tetrasodium pyrophosphate 0.1%",55.5%
same,D10(kGy),S. typhi [4]; [6],0.235 ± 0.0158^a kGy
same,irradiation dose for complete elimination of S. typhi,S. typhi [4]; [6],1.25 kGy
same,Increase in Sensitivity,"S. typhi [4]; vs control (0.519 kGy), ground beef, air, 4° C., carvacrol 1.0% alone or with ascorbic acid 0.5% and/or tetrasodium pyrophosphate 0.1%",54.7%
same,D10(kGy),Salmonella typhi,0.316 kGy
same,days of storage after which complete inhibition was produced,S. typhi [2]; carvacrol 1.15%,22 days
"O=C/C=C/c1ccccc1 [Trans-cinnamaldehyde, trans-cinnamaldehyde]",D10(kGy),E. coli; [7],0.046 ± 0.001^b* kGy
same,D10(kGy),E. coli; [8],0.115 ± 0.004^a* kGy
same,Increase in Sensitivity,E. coli; [9],46.5%
same,Increase in Sensitivity,E. coli; [10],8.7%
same,increase in irradiation sensitivity by modification of the packaging atmosphere,E. coli; [11],60%
same,irradiation dose needed to completely eliminate E. coli from the ground beef,E. coli; [12],0.25 kGy
same,irradiation dose needed to completely eliminate E. coli from the ground beef,E. coli; [13],0.6 kGy
same,irradiation dose to completely eliminate E. coli from ground beef,E. coli; [13],0.2 kGy
same,D10(kGy),S. typhi [4]; [7],0.110 ± 0.002^b* kGy
same,D10(kGy),S. typhi [4]; [8],0.356 ± 0.005^a* kGy
same,Increase in Sensitivity,S. typhi [4]; [9],50.2%
same,Increase in Sensitivity,S. typhi [4]; [10],32.3%
same,increase in irradiation sensitivity by modification of the packaging atmosphere,S. typhi [4]; [11],69.1%
same,irradiation dose required to completely eliminate S. typhi from the ground beef,S. typhi [4]; [12],0.6 kGy
same,irradiation dose required to completely eliminate S. typhi from ground beef,"S. typhi [4]; under air, trans-cinnamaldehyde 0.89%",0.75 kGy
same,irradiation dose required to completely eliminate S. typhi from the ground beef,S. typhi [4]; [13],around 2 kGy
same,D10(kGy),[1],0.494 kGy
same,days for which bacterial counts remained below detectable levels,[3]; [14],≥ 44 days
same,reduction of bacterial counts by irradiation,[3]; [5],more than 5 log CFU
same,storage time before a bacterial count of approximately 6 log is reached,[3],more than 35 days
same,days after which complete inhibition of bacterial growth resulted,mesophilic bacteria; [14],3 days
same,bacteria counts at day 44,mesophilic bacteria; [15],~1 log CFU/g
same,bacterial population reached after 36 days of storage,"mesophilic bacteria; without irradiation, stored at 4° C., trans-cinnamaldehyde […]",1 log CFU
same,days after which complete inhibition of bacterial growth resulted,psychrotrophic bacteria; [14],1 days
same,day of storage at which complete inhibition occurred,psychrotrophic bacteria; [15],36 days
